Experimental data: patent US20070112032A1, “Prevention and/or reduction of photoreceptor degeneration with retinoids” (priority 2003, published 2007)

How the values were obtained:
[1] = test system: photoreceptor layer of rats exposed to blue light; assay: Blue light (480 nm) photoreceptor damage in rats, retinal structure by histology; format: in vivo, Sprague-Dawley rats; design: key to Protective Activity: * means a protective effect of the photoreceptor layer to damage from blue light radiation.; **: Greater effectiveness is shown by increasing number of *'s.; ***: Greater effectiveness is shown by increasing number of *'s.; X means no such protective effect; details: for thickness of the photoreceptor layer: FIG. 2, oral 5 days before blue light, tazarotene 3 mg/kg/day, Compound A 10 mg/kg/day, compared with vehicle and antagonists; for thickness of the photoreceptor layer / Protective Activity: rats; for Protective Activity: oral dosing 5 days, last dose 2 hours before 8 hours blue light (480 nm, 12000 LUX)
Description: (§1) Adult male abino Sprague-Dawley rats (weight 400±30 g) were used for the following examples. After 18 hours of dark adaptation, animals were housed in specially designed acrylic cages and exposed to high intensity (12000 LUX) of blue fluorescent light (480 nm) for 8 hours. The light intensity was measured with a digital light meter. Each animal was housed separately. The room was maintained at 73° F. throughout the experiment. Animals were orally dosed with the appropriate retinoid or positive control, i.e. brimonidine, for 5 days with the last dose administered 2 hours before blue-light exposure. After the light exposure, the animals were kept in the dark room and recovered for an additional 5 days. Retinal function was evaluated with flash ERG analysis. Retinal structure was assessed by histology.
The following retinoids were evaluated for preventing damage to the photoreceptor layer of rats subjected to exposure to blue light.
(The RAR agonist, tazarotene, is an RARβ and […] retinioid. The RXR agonist also has some RAR agonist activity.)
In this Example, the above experiment is repeated with the RAR antagonist, which has antagonist activity at the α, β and […] retinoid receptor subtype dosed in combination with the RAR agonist and the RXR agonist.
The following retinoid compounds were tested in the above method with the results reported as shown.

[2] = test system: photoreceptor layer of rats exposed to blue light; assay: Blue light (480 nm) photoreceptor damage in rats, retinal function by flash ERG; format: in vivo, Sprague-Dawley rats; details: FIG. 3, ERG wave versus time, oral 5 days before blue light
Description: as §1

[3] = test system: photoreceptors of rats and mice; details: Sparrow PNAS 2003, Sieving PNAS 2001; cited from earlier work

| Structure (SMILES) | Protective Activity [1] | also measured |
| --- | --- | --- |
| CC(/C=C/[C@@H]1C[C@]1(C)c1ccc2c(c1)C(C)(C)CCC2(C)C)=C\C(=O)O [Compound A, 3,7-Dimethyl-6(S),7(S)-methano-7-[1,1,4,4-tetramethyl-1,2,3,4-tetrahydronaphth-7-yl]-2E, 4E-heptadienoic acid] | ** | thickness of the photoreceptor layer [1]: greater than the photoreceptor layers of the animals dosed with the RAR or RXR antagonists; protective effect to the photoreceptor layer measured by ERG [2]: show a protective effect |
| CCCOc1c(\C(CC)=C(F)/C=C/C(C)=C/C(=O)O)cc(C(C)C)cc1C(C)C [Compound B, (2E,4E,6E)-7-(3,5-Diisopropyl-2-propoxy-phenyl)-6-fluoro-3-methyl-nona-2,4,6-trienoic acid] | X |  |
| CCc1ccc(C2=CC(C)(C)Sc3ccc(C#Cc4ccc(C(=O)O)cc4)cc32)cc1 [Compound C] | X | effect of RAR antagonist on effectiveness of RAR agonist and RXR agonist ([1]; FIG. 5, RAR antagonist dosed in combination with the RAR agonist and the RXR agonist): severely diminishes the effectiveness of both the RAR agonist and the RXR agonists |
| Cc1ccc(C2CC(C)(C)Oc3c(Br)cc(NC(=O)c4ccc(C(=O)O)c(F)c4)cc32)cc1 (centres unmarked) [Compound D, 2-Fluoro-4-[6′-(2″,2″-dimethyl-4″-tolylchromanyl)-8'-bromo]carbamoyl benzoic acid] | X |  |
| CC1(C)CCC(C)(C)c2c1cc(C(=O)Nc1cc(F)c(C(=O)O)c(F)c1)c(O)c2Cl [Compound E, 4-[(4-Chloro-3-hydroxy-5,5,8,8-tetramethyl-5,6,7,8-tetrahydro-naphthalene-2-carbonyl)-amino]-2,6-difluoro-benzoic acid] | ** |  |
| CCC[C@]1(c2ccc3c(c2)C(C)(C)CCC3(C)C)C[C@H]1/C=C/C(C)=C/C(=O)O [Compound F, 3-Methyl-7-propyl-6(S),7(S)-methano-7[1,1,4,4-tetrametyl-1,2,3,4-tetrahydro-7-yl]-2(E),4(E)-heptadienoic acid] | X |  |
| Brc1c(NC2=NCCN2)ccc2nccnc12 [brimonidine, reference compound] |  | thickness of the photoreceptor layer [1]: much greater than the thickness of the photoreceptor layers of the animals dosed with the vehicle alone |
| CC1=C(/C=C/C(C)=C/C=C/C(C)=C\C(=O)O)C(C)(C)CCC1 [isotretinoin, 13-cis retinoic acid] |  | protection of photoreceptors from light damage [3]: can protect photoreceptors of rats and mice from light damage |
